From US20050009809A1, “Acridine derivatives and their use as medicaments” (priority 2003, published 2005)
Converted amounts (≈) assume the structure as drawn. Where two headings read alike, the source gives them in different places.

Assays:
[1] = Saturation solubility in water; settings: for solubility: water, thermodynamic from solid; for Water solubility compared to the comparison substances: versus comparison substances of WO0208194
Procedure: The saturation solubility in water is determined as described below. For incipient dissolution of the substances and to improve wetting of the samples, at most 1% of DMSO is added. To check the content, an HPLC-UV method was used.

[2] = system: human cervical carcinoma cell line KB/HeLa; test: XTT proliferation assay, KB/HeLa; type: cell-based; settings: for EC50: Homo sapiens, read-out: XTT proliferation assay, EC50, KB/Hela
From the text: (§1) The substances according to the invention were investigated for their antiproliferative activity in a proliferation test on established tumor cell lines. The test used determines the cellular dehydrogenase activity and makes possible a determination of the cell vitality and indirectly the cell count. The cell lines used are the human cervical carcinoma cell line KB/HeLa (ATCC CCL17), the ovarian adenocarcinoma cell line SKOV-3 (ATCC HTB77), the human glioblastoma cell line […] (NCI 503138) and the lung carcinoma cell line NCI-H460 (NCI 503473).
(§2) The adherently growing tumor cell lines KB/HeLa, SKOV-3, SF-268 and NCI-H460 were cultured under standard conditions in a fumigation incubator at 37° C., 5% CO2 and 95% atmospheric humidity. On experimental day 1, the cells are detached using trypsin/EDTA and pelleted by centrifugation. Subsequently, the cell pellet is resuspended in the respective culture medium at the corresponding cell count and reacted in a 96-well microtiter plate. The plates are then cultured overnight in the fumigation incubator. The test substances are prepared as 1 mg/ml stock solutions in DMSO and diluted to the appropriate concentrations on experimental day 2 using culture medium. The substances in culture medium are then added to the cells and incubated in the fumigation incubator for 45 h. As a control, cells which are not treated with test substance are used. For the XTT assay, 1 mg/ml of XTT (sodium 3′-[1-(phenylaminocarbonyl)-3,4-tetrazolium]-bis(4-methoxy-6-nitro)benzenesulfonic acid) is dissolved in RPMI-1640 medium without Phenol Red. Additionally, a 0.383 mg/ml PMS (N-methyldibenzopyrazine methylsulfate) solution in phosphate-buffered saline solution (PBS) is prepared. On experimental day 4, 75 μl/well of XTT-PMS mixture is pipetted onto the cell plates which in the meantime have been incubated with the test substances for 45 h. For this, shortly before use, the XTT solution is mixed with the PMS solution in the ratio 50:1 (vol:vol). The cell plates are then incubated in the fumigation incubator for a further 3 h and the optical density (OD490 nm) is determined in a photometer. By means of the OD490 nm determined, the percentage inhibition is calculated relative to the control and plotted semilogarithmically in the form of a concentration-action curve. The EC50 is calculated by means of a regression analysis from the concentration-action curve using the program Graphpad Prism.

[3] = system: ovarian adenocarcinoma cell line SKOV-3; test: XTT proliferation assay, SKOV-3; type: cell-based, human; settings: for EC50: Homo sapiens, SK-OV-3, read-out: XTT proliferation assay, EC50, SKOV3
From the text: as §1, §2

[4] = system: human glioblastoma cell line SF-268; test: XTT proliferation assay, SF-268; type: cell-based; settings: for EC50: Homo sapiens, read-out: XTT proliferation assay, EC50, SF-268
From the text: as §1, §2

[5] = system: lung carcinoma cell line NCI-H460; test: XTT proliferation assay, NCI-H460; type: cell-based, human; settings: for EC50: Homo sapiens, read-out: XTT proliferation assay, EC50, NCI-H460
From the text: as §1, §2

[6] = NCI-H460 cells, 45 h incubation

Molecule: O=C(c1c2ccccc2nc2ccccc12)N1CCN(c2cccc(O)c2)CC1 [Acridin-9-yl-[4-(3-hydroxyphenyl)piperazin-1-yl]methanone, reference compound]
- solubility [1]: 0.03 µg/mL (≈ 0.0782 µM)

Molecule: COc1cccc(N2CCN(C(=O)c3c4ccccc4nc4ccccc34)CC2)c1 [Acridin-9-yl-[4-(3-methoxyphenyl)piperazin-1-yl]-methanone, reference compound]
- solubility [1]: 0.42 µg/mL (≈ 1.06 µM)

Molecule: Cc1cccc(N2CCN(C(=O)c3c4ccccc4nc4ccccc34)CC2)n1 [Acridin-9-yl-[4-(6-methylpyridin-2-yl)piperazin-1-yl]methanone, reference compound]
- solubility [1]: 1.07 µg/mL (≈ 2.8 µM)

Molecule: Cc1cccc(N2CCN(C(=O)c3c4ccccc4nc4cc(O)cc(O)c34)CC2)n1 [Compound 1, (1,3-Dihydroxyacridin-9-yl)-[4-(6-methylpyridin-2-yl)piperazin-1-yl]-methanone]
- Water solubility compared to the comparison substances [1]: greatly improved water solubilities
- solubility [1]: 83.9 µg/mL (≈ 202 µM)

Molecule: CC(C)NC(=O)Oc1cccc(N2CCN(C(=O)c3c4ccccc4nc4ccccc34)CC2)c1 [Compound 2, 3-[4-(Acridin-9-ylcarbonyl)piperazin-1-yl]phenyl isopropylcarbamate]
- EC50 ([2]; KB/HeLa cells, 45 h incubation): 0.051 µg/mL (≈ 0.109 µM)
- EC50 ([3]; SKOV-3 cells, 45 h incubation): 0.039 µg/mL (≈ 0.0832 µM)
- EC50 ([4]; SF-268 cells, 45 h incubation): 0.061 µg/mL (≈ 0.13 µM)
- EC50 [5, 6]: 0.062 µg/mL (≈ 0.132 µM)

Molecule: O=C(c1c2ccccc2nc2ccccc12)N1CCN(c2cccc(OP(=O)(O)O)c2)CC1 [Compound 4, Mono-{3-[4-(acridin-9-ylcarbonyl)piperazin-1-yl]phenyl}phosphate]
- XTT proliferation assay, EC50, KB/Hela [2]: 0.018 µg/mL
- XTT proliferation assay, EC50, SKOV3 [3]: 0.208 µg/mL
- XTT proliferation assay, EC50, SF-268 [4]: 0.140 µg/mL
- XTT proliferation assay, EC50, NCI-H460 [5]: 0.272 µg/mL

Molecule: O=C(c1c2ccccc2nc2ccccc12)N1CCN(c2cccc(OP(=O)(O)Oc3cccc(N4CCN(C(=O)c5c6ccccc6nc6ccccc56)CC4)c3)c2)CC1 [Compound 11, bis-{3-[4-(Acridin-9-ylcarbonyl)piperazin-1-yl]phenyl}phosphate]
- XTT proliferation assay, EC50, KB/Hela ([2]; KB/HeLa cells, 45 h incubation): 0.132 µg/mL
- XTT proliferation assay, EC50, SKOV3 ([3]; SKOV-3 cells, 45 h incubation): 0.133 µg/mL
- XTT proliferation assay, EC50, SF-268 ([4]; SF-268 cells, 45 h incubation): 0.127 µg/mL
- XTT proliferation assay, EC50, NCI-H460 [5, 6]: 0.293 µg/mL

Molecule: O=C(Oc1cccc(N2CCN(C(=O)c3c4ccccc4nc4ccccc34)CC2)c1)Oc1cccc(N2CCN(C(=O)c3c4ccccc4nc4ccccc34)CC2)c1 [Compound 19, bis-{3-[4-(Acridin-9-ylcarbonyl)piperazin-1-yl]phenyl}carbonate]
- EC50 ([2]; KB/HeLa cells, 45 h incubation): 0.02 µg/mL (≈ 0.0252 µM)
- EC50 ([3]; SKOV-3 cells, 45 h incubation): 0.013 µg/mL (≈ 0.0164 µM)
- EC50 ([4]; SF-268 cells, 45 h incubation): 0.025 µg/mL (≈ 0.0315 µM)
- EC50 [5, 6]: 0.026 µg/mL (≈ 0.0328 µM)

Molecule: O=C(CCC(=O)N(CCO)CCO)Oc1cccc(N2CCN(C(=O)c3c4ccccc4nc4ccccc34)CC2)c1 [Compound 20, 3-[4-(Acridin-9-ylcarbonyl)piperazin-1-yl]phenyl N,N-bis-(2-hydroxy-ethyl)succinate]
- XTT proliferation assay, EC50, KB/Hela ([2]; KB/HeLa cells, 45 h incubation): 0.023 µg/mL
- XTT proliferation assay, EC50, SKOV3 ([3]; SKOV-3 cells, 45 h incubation): 0.014 µg/mL
- XTT proliferation assay, EC50, SF-268 ([4]; SF-268 cells, 45 h incubation): 0.021 µg/mL
- XTT proliferation assay, EC50, NCI-H460 [5, 6]: 0.027 µg/mL
- Absolute solubility in water ([1]; saturation solubility, at most 1% DMSO, HPLC-UV): 143.5 µg/mL
- Water solubility compared to the comparison substances [1]: greatly improved water solubilities

Molecule: CN1CCN(C(=O)CCC(=O)Oc2cccc(N3CCN(C(=O)c4c5ccccc5nc5ccccc45)CC3)c2)CC1 [Compound 21, 3-[4-(Acridin-9-ylcarbonyl)piperazin-1-yl]phenyl 4-(4-methylpiperazin-1-yl)-4-oxobutyrate]
- EC50 ([2]; KB/HeLa cells, 45 h incubation): 0.024 µg/mL (≈ 0.0424 µM)
- EC50 ([3]; SKOV-3 cells, 45 h incubation): 0.018 µg/mL (≈ 0.0318 µM)
- EC50 ([4]; SF-268 cells, 45 h incubation): 0.027 µg/mL (≈ 0.0477 µM)
- EC50 [5, 6]: 0.025 µg/mL (≈ 0.0442 µM)
- Water solubility compared to the comparison substances [1]: greatly improved water solubilities
- solubility [1]: 115 µg/mL (≈ 203 µM)

Molecule: CC1(C)OCC(C2OC3OC(C)(C)OC3C2OC(=O)CCC(=O)Oc2cccc(N3CCN(C(=O)c4c5ccccc5nc5ccccc45)CC3)c2)O1 (centres unmarked) [Compound 23, 3-[4-(Acridin-9-ylcarbonyl)piperazin-1-y;]phenyl 5-(2,2-dimethyl-[1,3]dioxolan-4-yl)-2,2-dimethyltetrahydrofuro[2,3-d][1,3]dioxol-6-yl succinate]
- XTT proliferation assay, EC50, KB/Hela ([2]; KB/HeLa cells, 45 h incubation): 0.045 µg/mL
- XTT proliferation assay, EC50, SKOV3 ([3]; SKOV-3 cells, 45 h incubation): 0.023 µg/mL
- XTT proliferation assay, EC50, SF-268 ([4]; SF-268 cells, 45 h incubation): 0.058 µg/mL
- XTT proliferation assay, EC50, NCI-H460 [5, 6]: 0.055 µg/mL

Molecule: CC1(C)OCC(C2OC3OC(C)(C)OC3C2OCCCCC(=O)Oc2cccc(N3CCN(C(=O)c4c5ccccc5nc5ccccc45)CC3)c2)O1 (centres unmarked) [Compound 24, 3-[4-(Acridin-9-ylcarbonyl)piperazin-1-yl]phenyl 5-[5-(2,2-dimethyl-[1,3]-dioxolan-4-yl)-2,2-dimethyltetrahydrofuro[2,3-d][1,3]dioxol-6-yloxy]-pentanoate]
- EC50 ([2]; KB/HeLa cells, 45 h incubation): 0.04 µg/mL (≈ 0.0551 µM)
- EC50 ([3]; SKOV-3 cells, 45 h incubation): 0.023 µg/mL (≈ 0.0317 µM)
- EC50 ([4]; SF-268 cells, 45 h incubation): 0.048 µg/mL (≈ 0.0661 µM)
- EC50 [5, 6]: 0.072 µg/mL (≈ 0.0992 µM)

Molecule: O=C(CCC(=O)OC1C(O)C(O)OC(CO)C1O)Oc1cccc(N2CCN(C(=O)c3c4ccccc4nc4ccccc34)CC2)c1 (centres unmarked) [Compound 25, 3-[4-(Acridin-9-ylcarbonyl)piperazin-1-yl]phenyl 2,3,5-trihydroxy-6-hydroxymethyltetrahydropyran-4-yl succinate]
- EC50 ([2]; KB/HeLa cells, 45 h incubation): 0.019 µg/mL
- EC50 ([3]; SKOV-3 cells, 45 h incubation): 0.014 µg/mL
- EC50 ([4]; SF-268 cells, 45 h incubation): 0.029 µg/mL
- EC50 [5, 6]: 0.035 µg/mL
- Water solubility compared to the comparison substances [1]: greatly improved water solubilities
- solubility [1]: 215 µg/mL

Molecule: O=C(CCCCOC1C(O)C(O)OC(CO)C1O)Oc1cccc(N2CCN(C(=O)c3c4ccccc4nc4ccccc34)CC2)c1 (centres unmarked) [Compound 26, 3-[4-(Acridin-9-ylcarbonyl)piperazin-1-yl]phenyl 5-(2,3,5-trihydroxy-6-hydroxymethyltetrahydropyran-4-yloxy)pentanoate]
- EC50 ([2]; KB/HeLa cells, 45 h incubation): 0.042 µg/mL (≈ 0.065 µM)
- EC50 ([3]; SKOV-3 cells, 45 h incubation): 0.026 µg/mL (≈ 0.0403 µM)
- EC50 ([4]; SF-268 cells, 45 h incubation): 0.047 µg/mL (≈ 0.0728 µM)
- EC50 [5, 6]: 0.054 µg/mL (≈ 0.0836 µM)

Molecule: O=C(NCCN1CCOCC1)Oc1cccc(N2CCN(C(=O)c3c4ccccc4nc4ccccc34)CC2)c1 [Compound 29, 3-[4-(Acridin-9-ylcarbonyl)piperazin-1-yl]phenyl (2-morpholin-4-yl-ethyl)carbamate]
- EC50 ([2]; KB/HeLa cells, 45 h incubation): 0.036 µg/mL (≈ 0.0667 µM)
- EC50 ([3]; SKOV-3 cells, 45 h incubation): 0.017 µg/mL (≈ 0.0315 µM)
- EC50 ([4]; SF-268 cells, 45 h incubation): 0.024 µg/mL (≈ 0.0445 µM)
- EC50 [5, 6]: 0.027 µg/mL (≈ 0.05 µM)
- Water solubility compared to the comparison substances [1]: greatly improved water solubilities
- solubility [1]: 41 µg/mL (≈ 76 µM)

Molecule: O=C(NCCCl)Oc1cccc(N2CCN(C(=O)c3c4ccccc4nc4ccccc34)CC2)c1 [Compound 30, 3-[4-(Acridin-9-ylcarbonyl)piperazin-1-yl]phenyl (2-chloroethyl)carbamate]
- EC50 ([2]; KB/HeLa cells, 45 h incubation): 0.029 µg/mL (≈ 0.0593 µM)
- EC50 ([3]; SKOV-3 cells, 45 h incubation): 0.019 µg/mL (≈ 0.0389 µM)
- EC50 ([4]; SF-268 cells, 45 h incubation): 0.026 µg/mL (≈ 0.0532 µM)
- EC50 [5, 6]: 0.025 µg/mL (≈ 0.0511 µM)

Molecule: Mono-{3-[4-(acridin-9-ylcarbonyl)piperazin-1-yl]phenyl}glutarate [Compound 22]
- XTT proliferation assay, EC50, KB/Hela ([2]; KB/HeLa cells, 45 h incubation): 0.01 µg/mL
- XTT proliferation assay, EC50, SKOV3 ([3]; SKOV-3 cells, 45 h incubation): 0.007 µg/mL
- XTT proliferation assay, EC50, SF-268 ([4]; SF-268 cells, 45 h incubation): 0.019 µg/mL
- XTT proliferation assay, EC50, NCI-H460 [5, 6]: 0.016 µg/mL
